Laboratory results from patent US11878063B2, “Engineered ligands and uses thereof” (Children's Medical Center Corporation, priority 2019, dated 2024).
Entries after “also recorded” stand apart in the source; their conditions may differ. Square brackets hold non-standard residues; d marks the D form. Peptide text beside a SMILES is read from it. Aib = CC(C)(N)C(=O)O

Key:
PTHR1YFPΔECD = assay: Flow cytometry staining by VHH-Alexafluor647 of HEK293 cells expressing PTHR1YFPΔECD; assay type: binding, human
Experimental: (§1) Flow cytometry. Suspensions of cells in PBS were stained for 1 hour on ice in the presence of indicated concentrations of VHH probes functionalized with Alexafluor647. Cells were pelleted by centrifugation and washed with PBS prior to analysis by flow cytometry (BD Accuri C6). Gating was performed on forward scatter/side scatter profiles to analyze intact cells. Data was analyzed using FlowJo version 7.6. The median fluorescent intensity (MFI) of stained cells was used to generate VHH binding dose response curves (FIG. 20).

PTHR1GFP = assay: Flow cytometry staining by VHH-Alexafluor647 of HEK293 cells expressing PTHR1GFP; assay type: binding, human; conditions: 100 nM VHH
Experimental: FIGS. 17A-17C: Use of PTHR1-GFP. (FIG. 17A) Hypothetical structure of PTHR1 with GFP engrafted into exon 2 bound to a GFP binding nanobody. (FIG. 17B) Flow cytometry analysis of cells stably expressing PTHR1-GFP. HEK293 cell lines in suspension were incubated on ice with 100 nM VHH sortagged with Alexafluor647, pelleted by centrifugation, washed and analyzed. […] This weak staining is likely related to the inability of VHHGFP to tightly bind the pH-sensitive GFP variant known as pHluorin2 engrafted into the receptor (ref. 19, main text). (FIG. 17C) HEK293 cells stably expressing PTHR1-GFP were treated with varied doses of the indicated peptides or conjugates and activation was assessed by measuring luminescence from a cAMP-activated luciferase variant. Values listed represent EC50 values (mean±SD). Each value comes from ≥3 independent experiments. Further details, including the number of replicates for each measurement and the normalized maximal responses induced, are reported in Table 5.
as §1, with “The median fluorescent intensity (MFI) of stained cells was used to generate VHH binding dose response curves (FIG. 20).” left out

PTHR2 [1] = target: T1, PTHR2 (Homo sapiens, UniProt P49190); assay: cAMP induction in HEK293 cells stably expressing human PTHR2; assay type: cell-based; conditions: at 100 uM
T1 construct: expressed in transfected cells
T1 sequence (P49190 25-550): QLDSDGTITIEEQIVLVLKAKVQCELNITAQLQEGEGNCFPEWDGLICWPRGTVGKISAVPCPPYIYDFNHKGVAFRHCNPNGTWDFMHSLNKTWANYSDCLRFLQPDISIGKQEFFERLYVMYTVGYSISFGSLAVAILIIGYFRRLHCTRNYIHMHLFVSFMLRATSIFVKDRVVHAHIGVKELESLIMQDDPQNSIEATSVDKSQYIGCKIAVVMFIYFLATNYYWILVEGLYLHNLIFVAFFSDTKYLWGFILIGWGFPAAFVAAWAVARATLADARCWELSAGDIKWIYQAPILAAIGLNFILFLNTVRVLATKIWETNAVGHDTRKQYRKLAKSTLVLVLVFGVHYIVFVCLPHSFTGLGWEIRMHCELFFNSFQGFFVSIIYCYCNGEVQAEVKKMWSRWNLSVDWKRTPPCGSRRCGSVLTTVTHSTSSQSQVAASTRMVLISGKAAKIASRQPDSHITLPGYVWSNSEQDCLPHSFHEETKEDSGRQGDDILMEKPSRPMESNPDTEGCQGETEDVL
Experimental: (§2) Measurement of cAMP response. These assays were performed as previously described^27. […] Confluent monolayers of cells were pre-incubated with CO2 independent medium containing D-luciferin (0.5 mM) at 37° C. until a stable baseline level of luminescence was established (20 min). Varying concentrations of ligands were then added, and the time course of luminescence response was recorded using BioTek plate reader.
(§3) Data calculations. Data were processed using Microsoft Excel and GraphPad Prism 6. Data from cAMP dose-response assays were analyzed using a sigmoidal dose-response model with variable slope. Data sets were statistically compared by using Student's t test (two-tailed) assuming unequal variances for the two sets.

PTHR16E = target: T2, PTHR16E (Homo sapiens, UniProt Q03431, A83I/D81R/G76A/K80A/K82Q/P78E/R79L/S71Q/S73D/S75E/T74Q); assay: cAMP induction in HEK293 cells stably expressing PTHR16E (6E/Ubc6e epitope tag in exon 2 segment); assay type: cell-based
T2 construct: expressed in transfected cells
T2 sequence (Q03431 27-593 S71Q/S73D/T74Q/S75E/G76A/P78E/R79L/K80A/D81R/K82Q/A83I): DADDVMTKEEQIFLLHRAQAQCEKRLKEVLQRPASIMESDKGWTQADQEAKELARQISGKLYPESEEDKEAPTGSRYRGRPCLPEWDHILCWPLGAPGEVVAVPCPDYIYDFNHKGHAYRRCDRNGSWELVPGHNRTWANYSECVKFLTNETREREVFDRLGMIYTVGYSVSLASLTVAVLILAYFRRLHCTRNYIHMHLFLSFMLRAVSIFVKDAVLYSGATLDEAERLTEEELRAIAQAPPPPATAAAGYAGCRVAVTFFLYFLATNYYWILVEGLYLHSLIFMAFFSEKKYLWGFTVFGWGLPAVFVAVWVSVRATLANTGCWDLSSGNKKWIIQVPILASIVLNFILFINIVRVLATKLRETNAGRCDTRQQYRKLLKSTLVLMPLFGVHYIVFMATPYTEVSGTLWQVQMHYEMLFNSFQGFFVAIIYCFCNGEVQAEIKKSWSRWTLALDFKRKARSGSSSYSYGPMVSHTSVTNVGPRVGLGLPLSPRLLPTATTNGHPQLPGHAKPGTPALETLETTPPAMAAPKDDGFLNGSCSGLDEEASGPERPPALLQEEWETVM
Experimental: Measurement of cAMP response. These assays were performed as previously described^27. Briefly, HEK-293-derived cell lines that stably express the Glosensor cAMP reporter (Promega Corp.)^30 and PTHR1, a PTHR1 variant, or PTHR2 were seeded into white sided 96 well plates (50,000 cells/well) and grown to confluency. Confluent monolayers of cells were pre-incubated with CO2 independent medium containing D-luciferin (0.5 mM) at 37° C. until a stable baseline level of luminescence was established (20 min). Varying concentrations of ligands were then added, and the time course of luminescence response was recorded using BioTek plate reader.
as §3
The portion of PTHR1 encoded by exon 2 is not resolved in structural studies (FIG. 12—Panel d)^13, 14, 17, is not important for ligand binding^18, and in past work has been targeted as a site for receptor modification^18, 19. A construct was generated that encodes a PTHR1 variant in which a 14-residue fragment from exon 2 was replaced with a 14-mer epitope tag from the intracellular protein UBC6e (PTHR16E, FIG. 12—Panel d)^20. A receptor construct in which a pH-sensitive green fluorescent protein variant (GFP) was inserted into the portion of the receptor encoded by exon 2 (PTHR1GFP in FIGS. 17A to 17C)^19. Another version of PTHR1 in which yellow fluorescent protein (YFP) replaces the entire extracellular domain (PTHR1YFPΔECD, FIG. 12—Panel e)^21, was also used.

rat PTHR1 [2] = target: T3, rat PTHR1 (Rattus norvegicus, UniProt P25961); assay: cAMP induction in HEK293 cells stably expressing rat PTHR1; assay type: cell-based
T3 construct: expressed in transfected cells
T3 sequence (P25961 27-591): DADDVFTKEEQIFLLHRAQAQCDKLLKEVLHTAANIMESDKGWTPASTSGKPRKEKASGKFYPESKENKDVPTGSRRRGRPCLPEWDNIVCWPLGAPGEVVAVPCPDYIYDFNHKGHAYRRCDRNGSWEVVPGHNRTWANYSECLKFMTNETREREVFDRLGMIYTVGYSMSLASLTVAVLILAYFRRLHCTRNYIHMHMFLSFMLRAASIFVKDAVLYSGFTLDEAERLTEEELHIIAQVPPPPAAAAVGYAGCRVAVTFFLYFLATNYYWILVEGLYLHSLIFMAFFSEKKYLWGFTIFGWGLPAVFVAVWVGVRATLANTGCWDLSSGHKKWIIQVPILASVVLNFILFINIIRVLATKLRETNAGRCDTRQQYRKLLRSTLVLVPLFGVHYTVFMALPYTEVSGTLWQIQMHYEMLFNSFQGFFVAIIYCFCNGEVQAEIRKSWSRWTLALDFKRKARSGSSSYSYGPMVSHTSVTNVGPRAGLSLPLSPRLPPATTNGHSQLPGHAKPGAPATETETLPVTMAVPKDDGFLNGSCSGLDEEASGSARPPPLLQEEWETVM
Experimental: as §2, §3

human PTHR1 = target: T4, human PTHR1 (Homo sapiens, UniProt Q03431); assay: cAMP induction (cAMP-responsive luciferase) in HEK293 cells stably expressing human PTHR1; assay type: cell-based
T4 construct: expressed in transfected cells
T4 sequence (Q03431 27-593): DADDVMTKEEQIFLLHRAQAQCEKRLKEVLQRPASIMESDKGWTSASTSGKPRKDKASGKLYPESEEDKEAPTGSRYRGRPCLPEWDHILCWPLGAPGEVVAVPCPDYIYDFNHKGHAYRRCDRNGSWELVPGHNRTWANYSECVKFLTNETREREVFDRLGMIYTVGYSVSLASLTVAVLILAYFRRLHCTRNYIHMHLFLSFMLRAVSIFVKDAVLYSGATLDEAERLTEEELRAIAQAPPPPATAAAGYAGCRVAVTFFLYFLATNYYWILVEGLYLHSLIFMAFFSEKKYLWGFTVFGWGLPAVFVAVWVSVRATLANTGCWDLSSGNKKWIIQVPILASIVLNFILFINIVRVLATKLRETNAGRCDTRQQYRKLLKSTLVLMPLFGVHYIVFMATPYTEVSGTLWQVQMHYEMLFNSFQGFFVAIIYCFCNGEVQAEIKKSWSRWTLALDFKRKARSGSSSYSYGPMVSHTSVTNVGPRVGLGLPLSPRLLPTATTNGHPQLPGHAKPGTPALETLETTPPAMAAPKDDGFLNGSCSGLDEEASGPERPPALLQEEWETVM
Experimental: as §2, §3

rat PTHR1 [3] = target: T3, rat PTHR1; assay: Flow cytometry staining by VHH-Alexafluor647 of HEK293 cells expressing rat PTHR1; assay type: binding; conditions: 100 nM VHH
Experimental: as §1

PTHR1 = assay: Flow cytometry staining by VHH-Alexafluor647 of HEK293 cells expressing PTHR1 constructs that retain the ECD; assay type: binding, human; conditions: 100 nM VHH
Experimental: as §1

PTHR2 [4] = target: T1, PTHR2; assay: Flow cytometry staining by VHH-Alexafluor647 of HEK293 cells expressing PTHR2; assay type: binding; conditions: 100 nM VHH; listed as VHH22A3
Experimental: as §1

VHHGFP: nanobody that binds GFP and YFP, SEQ ID NO: 73
staining of PTHR1YFPΔECD cells (in words) (PTHR1YFPΔECD; 100 nM VHH): stained | EC50 (PTHR1YFPΔECD; flow cytometry, on ice, read-out: half-maximal staining concentration, PTHR1YFP-del-NT cells): < 10 nM | staining of PTHR1GFP cells (in words) (PTHR1GFP): only weakly stained

CC[C@H](C)[C@H](NC(=O)[C@H](CCC(=O)O)NC(=O)C(C)(C)NC(=O)[C@@H](NC(=O)[C@H](C)N)C(C)C)C(=O)N[C@@H](CCC(N)=O)C(=O)N[C@@H](CC(C)C)C(=O)N[C@@H](CCSC)C(=O)N[C@@H](Cc1c[nH]cn1)C(=O)N[C@@H](CCC(N)=O)C(=O)N[C@@H](CCCNC(=N)N)C(=O)N[C@@H](CS)C(N)=O [PTH(1-11)] (H-AV[Aib]EIQLMHQRC-NH2)
response at 100 uM, hPTHR2 (PTHR2 [1]): 20% | EC50 (PTHR16E): 94 ± 74 nM | EC50 (rat PTHR1 [2]): 120 ± 90.3 nM | EC50 (human PTHR1): 516 ± 238 nM

B1: VHHPTHR: nanobody that recognizes the PTHR1 extracellular domain, SEQ ID NO: 74, from US 2010/0062004 (protein)
VHH: EVQLVESGGGLVQAGGSLRLSCAASGNIFANNIMGWYRQPPGKEREFVAHVSHDGDSMYAVSVKGRFAISRKDATNLYLQMNSLKPEDTAIYFCRLLNIPTQGRMEGFWGQGTQVTVSS
binding to rat PTHR1 (in words) (rat PTHR1 [3]): bound | binding to PTHR1 constructs retaining the ECD (in words) (PTHR1): bound all constructs that retained the PTHR1 ECD; also recorded: binds to PTHR1 | binding to PTHR2 (in words) (PTHR2 [4]): lack of binding
